What was measured:
[1] = test system: L428 cells; experiment: Xenograft in NSG mice, CD30 immunofluorescence of cytospin slides; assay type: in vivo; set-up: key to Spleen, red pulp activation, diffuse / Liver, Tumour cell infiltration: “0”=without any staining; “1”=minimal, <1% staining; “2”=mild, 1% staining; “3”=moderate, <10% staining; “4”=marked, 10-40% staining; “5”=severe, >40% of cells staining; details: for Bone Marrow: Tumour infiltration: Marked / Bone Marrow: Tumour infiltration: Mild / Bone Marrow: Tumour infiltration: Minimal / Bone Marrow: Tumour infiltration: Moderate / Bone Marrow: Tumour infiltration: No / Bone Marrow: Tumour infiltration: Overall / Bone Marrow: Tumour infiltration: Severe / Injection site: Tumour infiltration: Marked / Injection site: Tumour infiltration: Mild / Injection site: Tumour infiltration: Minimal / Injection site: Tumour infiltration: Moderate / Injection site: Tumour infiltration: No / Injection site: Tumour infiltration: Overall / Injection site: Tumour infiltration: Severe / Liver: Tumour infiltration: Marked / Liver: Tumour infiltration: Mild / Liver: Tumour infiltration: Minimal / Liver: Tumour infiltration: Moderate / Liver: Tumour infiltration: No / Liver: Tumour infiltration: Overall / Liver: Tumour infiltration: Severe / Spleen: Tumour infiltration: Marked / Spleen: Tumour infiltration: Mild / Spleen: Tumour infiltration: Minimal / Spleen: Tumour infiltration: Moderate / Spleen: Tumour infiltration: No / Spleen: Tumour infiltration: Overall / Spleen: Tumour infiltration: Severe / Tumour presence: Overall: % of mice
Excerpt: Immunodeficient NOD-SCID-gammac−/− (NSG) mice aged 5 to 6 weeks were purchased from Charles River (NOD.Cg-Prkdcscid Il2rgtm1Wjl/SzJ). The mice arrived two weeks before the beginning of the experiments and were housed in micro-isolator cages during the entire course of the study. Immediately prior to the injection of Hodgkin lymphoma cells, mice were exposed to 3 Gy gamma irradiation using an IBL637 ^137Cs irradiator at a dose rate of 0.61 Gy/min. From 10^3 to 10^6 cells, either from the original cell lines or following amplification, were injected intravenously via the retro-orbital sinus. The mice were sacrificed by cervical dislocation and different organs were analysed and tumoural infiltration examined using multiple techniques.
Two independent experiments were performed to investigate the dose-effect of EDO-S101 in NSG mice eight weeks after xenografting with L428 cells as in Example 8. The aim of the protocol shown in FIG. […]
The mice were sacrificed by cervical dislocation. The sampled organs consisted of the eyes (site of injection), liver, spleen and bone marrow. Following dissection of different organs, including tumours, the first portion was used for flow cytometry (FACS) and cytogenetic analyses while the second was fixed in 4% paraformaldehyde (PFA) for immunohistochemistry (IHC). To obtain a single cell suspension, the tissues were first cut into pieces. Thereafter, the cells were physically disaggregated using an 80 μm nylon cell strainer and filtered a second time through a 70 μm nylon cell strainer (BD Biosciences, Erembodegem, Belgium).
Cells were cytospun onto poly-L-lysine-coated glass slides at 700 rpm for 4 min, fixed with 10% formalin for 10 min, and treated with 0.25% Triton X-100 solution for 10 min. After blocking with 5% bovine serum albumin (Sigma), the cells were incubated with an anti-CD30 antibody (DAKO A/S, Glostrup, Denmark). Then, cells were treated with Cyanine 3 anti-mouse IgG (Invitrogen, Carlsbad, Calif.). As a negative control, staining was carried out in the absence of primary antibody. The L428-s cell line served as positive control.
Individual microscopic findings following immunofluorescence CD30 staining of cytopsin slides: “0”=without any staining; “1”=minimal, <1% staining; “2”=mild, 1% staining; “3”=moderate, <10% staining; “4”=marked, 10-40% staining; “5”=severe, >40% of cells staining.

[2] = test system: L540 cell line; experiment: Mitotic index and chromosomal aberrations; assay type: cell-based, human
Description: (§1) The mitotic index and chromosomal aberrations for each of the cell lines were evaluated after treatment with either 20 μmol or 10 μmol EDO-S101 in DMSO. Each cell line was cultured at 37° C. in the presence of RPMI 1640 supplemented with 10% FCS and antibiotics. Colcemid (0.1 ug/ml) was added 2 h before harvesting and slides with chromosomes in metaphase were prepared following the standard methanol/acetic acid (3/1, v/v) procedure. The slides were stored at −20° C. until use.
(§2) FISH was performed using a combination of standard procedures from the recommended protocols for chromosome analysis, following telomere and centromere staining, using PNA probes. In all, 100 metaphases were scored per in vitro dose exposure.
(§3) The mitotic index was determined by measurement of the sum of all cells in prophase, metaphase, anaphase and telophase divided by the total number of cells.

[3] = test system: KMH2 cell line; experiment: Mitotic index and chromosomal aberrations; assay type: cell-based, human
Description: as §1, §2, §3

**Q.** What does the source list for `Cn1c(CCCCCCC(=O)NO)nc2cc(N(CCCl)CCCl)ccc21` [EDO-S101]?
**A.** Bone Marrow: Tumour infiltration: Marked ([1]; 80 mg/kg): 0.0%; Bone Marrow: Tumour infiltration: Mild ([1]; 80 mg/kg): 0.0%; Bone Marrow: Tumour infiltration: Minimal ([1]; 80 mg/kg): 33.3%; Bone Marrow: Tumour infiltration: Moderate ([1]; 80 mg/kg): 0.0%; Bone Marrow: Tumour infiltration: No ([1]; 80 mg/kg): 33.3%; Bone Marrow: Tumour infiltration: Overall ([1]; 80 mg/kg): 33.3%; Bone Marrow: Tumour infiltration: Severe ([1]; 80 mg/kg): 0.0%; Injection site: Tumour infiltration: Marked ([1]; 80 mg/kg): 0.0%; Injection site: Tumour infiltration: Mild ([1]; 80 mg/kg): 33.3%; Injection site: Tumour infiltration: Minimal ([1]; 80 mg/kg): 0.0%; Injection site: Tumour infiltration: Moderate ([1]; 80 mg/kg): 0.0%; Injection site: Tumour infiltration: No ([1]; 80 mg/kg): 0.0%; Injection site: Tumour infiltration: Overall ([1]; 80 mg/kg): 33.3%; Injection site: Tumour infiltration: Severe ([1]; 80 mg/kg): 0.0%; Liver: Tumour infiltration: Marked ([1]; 80 mg/kg): 0.0%; Liver: Tumour infiltration: Mild ([1]; 80 mg/kg): 0.0%; Liver: Tumour infiltration: Minimal ([1]; 80 mg/kg): 0.0%; Liver: Tumour infiltration: Moderate ([1]; 80 mg/kg): 0.0%; Liver: Tumour infiltration: No ([1]; 80 mg/kg): 100.0%; Liver: Tumour infiltration: Overall ([1]; 80 mg/kg): 0.0%; Liver: Tumour infiltration: Severe ([1]; 80 mg/kg): 0.0%; Spleen: Tumour infiltration: Marked ([1]; 80 mg/kg): 0.0%; Spleen: Tumour infiltration: Mild ([1]; 80 mg/kg): 0.0%; Spleen: Tumour infiltration: Minimal ([1]; 80 mg/kg): 0.0%; Spleen: Tumour infiltration: Moderate ([1]; 80 mg/kg): 0.0%; Spleen: Tumour infiltration: No ([1]; 80 mg/kg): 33.3%; Spleen: Tumour infiltration: Overall ([1]; 80 mg/kg): 0.0%; Spleen: Tumour infiltration: Severe ([1]; 80 mg/kg): 0.0%; Tumour presence: Overall ([1]; 80 mg/kg): 66.7%; Bone Marrow: Tumour infiltration: Marked ([1]; 1 * 60 mg/kg): 0.0%; Bone Marrow: Tumour infiltration: Mild ([1]; 1 * 60 mg/kg): 0.0%; Bone Marrow: Tumour infiltration: Minimal ([1]; 1 * 60 mg/kg): 25.0%; Bone Marrow: Tumour infiltration: Moderate ([1]; 1 * 60 mg/kg): 0.0%; Bone Marrow: Tumour infiltration: No ([1]; 1 * 60 mg/kg): 0.0%; Bone Marrow: Tumour infiltration: Overall ([1]; 1 * 60 mg/kg): 25.0%; Bone Marrow: Tumour infiltration: Severe ([1]; 1 * 60 mg/kg): 0.0%; Injection site: Tumour infiltration: Marked ([1]; 1 * 60 mg/kg): 75.0%; Injection site: Tumour infiltration: Mild ([1]; 1 * 60 mg/kg): 0.0%; Injection site: Tumour infiltration: Minimal ([1]; 1 * 60 mg/kg): 0.0%; Injection site: Tumour infiltration: Moderate ([1]; 1 * 60 mg/kg): 25.0%; Injection site: Tumour infiltration: No ([1]; 1 * 60 mg/kg): 0.0%; Injection site: Tumour infiltration: Overall ([1]; 1 * 60 mg/kg): 100.0%; Injection site: Tumour infiltration: Severe ([1]; 1 * 60 mg/kg): 0.0%; Liver: Tumour infiltration: Marked ([1]; 1 * 60 mg/kg): 0.0%; Liver: Tumour infiltration: Mild ([1]; 1 * 60 mg/kg): 0.0%; Liver: Tumour infiltration: Minimal ([1]; 1 * 60 mg/kg): 50.0%; Liver: Tumour infiltration: Moderate ([1]; 1 * 60 mg/kg): 25.0%; Liver: Tumour infiltration: No ([1]; 1 * 60 mg/kg): 25.0%; Liver: Tumour infiltration: Overall ([1]; 1 * 60 mg/kg): 75.0%; Liver: Tumour infiltration: Severe ([1]; 1 * 60 mg/kg): 0.0%; Spleen: Tumour infiltration: Marked ([1]; 1 * 60 mg/kg): 0.0%; Spleen: Tumour infiltration: Mild ([1]; 1 * 60 mg/kg): 0.0%; Spleen: Tumour infiltration: Minimal ([1]; 1 * 60 mg/kg): 0.0%; Spleen: Tumour infiltration: Moderate ([1]; 1 * 60 mg/kg): 0.0%; Spleen: Tumour infiltration: No ([1]; 1 * 60 mg/kg): 25.0%; Spleen: Tumour infiltration: Overall ([1]; 1 * 60 mg/kg): 0.0%; Spleen: Tumour infiltration: Severe ([1]; 1 * 60 mg/kg): 0.0%; Tumour presence: Overall ([1]; 1 * 60 mg/kg): 100.0%; Bone marrow ([1]; 1 * 60 mg/kg, individual mice): 1 (“1”=minimal, <1% staining); Spleen, red pulp activation, diffuse ([1]; 1 * 60 mg/kg, individual mice): 0; Eye and/or periocular mucosa, periocular tumour cell infiltration, focal/multifocal/diffuse ([1]; 1 * 80 mg/kg, individual mice): 2 (“2”=mild, 1% staining); Liver, Tumour cell infiltration ([1]; 1 * 80 mg/kg, individual mice): 0; Spleen, red pulp activation, diffuse ([1]; 1 * 80 mg/kg, individual mice): 0; Bone Marrow: Tumour infiltration: Marked ([1]; 2 * 60 mg/kg): 0.0%; Bone Marrow: Tumour infiltration: Mild ([1]; 2 * 60 mg/kg): 0.0%; Bone Marrow: Tumour infiltration: Minimal ([1]; 2 * 60 mg/kg): 55.6%; Bone Marrow: Tumour infiltration: Moderate ([1]; 2 * 60 mg/kg): 0.0%; Bone Marrow: Tumour infiltration: No ([1]; 2 * 60 mg/kg): 22.2%; Bone Marrow: Tumour infiltration: Overall ([1]; 2 * 60 mg/kg): 55.6%; Bone Marrow: Tumour infiltration: Severe ([1]; 2 * 60 mg/kg): 0.0%; Injection site: Tumour infiltration: Marked ([1]; 2 * 60 mg/kg): 0.0%; Injection site: Tumour infiltration: Mild ([1]; 2 * 60 mg/kg): 11.1%; Injection site: Tumour infiltration: Minimal ([1]; 2 * 60 mg/kg): 0.0%; Injection site: Tumour infiltration: Moderate ([1]; 2 * 60 mg/kg): 0.0%; Injection site: Tumour infiltration: No ([1]; 2 * 60 mg/kg): 0.0%; Injection site: Tumour infiltration: Overall ([1]; 2 * 60 mg/kg): 11.1%; Injection site: Tumour infiltration: Severe ([1]; 2 * 60 mg/kg): 0.0%; Liver: Tumour infiltration: Marked ([1]; 2 * 60 mg/kg): 0.0%; Liver: Tumour infiltration: Mild ([1]; 2 * 60 mg/kg): 11.1%; Liver: Tumour infiltration: Minimal ([1]; 2 * 60 mg/kg): 44.4%; Liver: Tumour infiltration: Moderate ([1]; 2 * 60 mg/kg): 0.0%; Liver: Tumour infiltration: No ([1]; 2 * 60 mg/kg): 44.4%; Liver: Tumour infiltration: Overall ([1]; 2 * 60 mg/kg): 55.6%; Liver: Tumour infiltration: Severe ([1]; 2 * 60 mg/kg): 0.0%; Spleen: Tumour infiltration: Marked ([1]; 2 * 60 mg/kg): 0.0%; Spleen: Tumour infiltration: Mild ([1]; 2 * 60 mg/kg): 0.0%; Spleen: Tumour infiltration: Minimal ([1]; 2 * 60 mg/kg): 44.4%; Spleen: Tumour infiltration: Moderate ([1]; 2 * 60 mg/kg): 0.0%; Spleen: Tumour infiltration: No ([1]; 2 * 60 mg/kg): 11.1%; Spleen: Tumour infiltration: Overall ([1]; 2 * 60 mg/kg): 44.4%; Spleen: Tumour infiltration: Severe ([1]; 2 * 60 mg/kg): 0.0%; Tumour presence: Overall ([1]; 2 * 60 mg/kg): 66.7%; Eye and/or periocular mucosa, periocular tumour cell infiltration, focal/multifocal/diffuse ([1]; 2 * 60 mg/kg, individual mice): 2 (“2”=mild, 1% staining); tumour cells in organs (liver, spleen, bone marrow) ([1]; single dose of 80 mg/kg): No tumour cells were observed in any organs; mitotic index [2]: very low mitotic index; mitotic index [3]: very low mitotic index; chromosomal aberrations in metaphase ([3]; telomere and centromere staining): numerous chromosomal aberrations

Reference: patent publication US20180098969A1, “HODGKIN LYMPHOMA THERAPY” (Purdue Pharmaceutical Products L.P., priority 2016, published 2018)
